Measurements taken from ChEMBL document CHEMBL1150850, “Cytotoxic principles from Ventilago leiocarpa” (J Nat Prod, 2001).
One block for each compound: values may come before it.

What was measured:
[1] = test system: Calu-1; assay: Inhibition of human Calu1 cell proliferation assessed as [3H]thymidine incorporation after 3 days by scintillation counting; type: functional, cell-based
[2] = test system: Raji; assay: Inhibition of human Raji cell proliferation assessed as [3H]thymidine incorporation after 3 days by scintillation counting; type: functional, cell-based
[3] = test system: HeLa; assay: Inhibition of human HeLa cell proliferation assessed as [3H]thymidine incorporation after 3 days by scintillation counting; type: functional, cell-based
[4] = test system: Vero; assay: Inhibition of african green monkey Vero cell proliferation assessed as [3H]thymidine incorporation after 3 days by scintillation counting; type: cell-based; conditions: Chlorocebus sabaeus
[5] = test system: WISH; assay: Inhibition of human WISH cell proliferation assessed as [3H]thymidine incorporation after 3 days by scintillation counting; type: functional, cell-based
[6] = test system: K562; assay: Inhibition of human K562 cell proliferation assessed as [3H]thymidine incorporation after 3 days by scintillation counting; type: functional, cell-based
[7] = test system: Raji; assay: Growth inhibition of human Raji cells assessed as [3H]thymidine incorporation at 50 uM after 3 days by scintillation counting; type: functional; conditions: read-out: GI
[8] = test system: HeLa; assay: Growth inhibition of human HeLa cells assessed as [3H]thymidine incorporation at 25 uM after 3 days by scintillation counting; type: functional; conditions: read-out: GI
[9] = Growth inhibition of african green monkey Vero cells assessed as [3H]thymidine incorporation at 25 uM after 3 days by scintillation counting; type: cell-based; conditions: chlorocebus sabaeus, read-out: GI
[10] = test system: WISH; assay: Growth inhibition of human WISH cells assessed as [3H]thymidine incorporation at 50 uM after 3 days by scintillation counting; type: functional; conditions: read-out: GI
[11] = test system: Raji; assay: Growth inhibition of human Raji cells assessed as [3H]thymidine incorporation at 6.25 uM after 3 days by scintillation counting; type: functional; conditions: read-out: GI
[12] = test system: Calu-1; assay: Growth inhibition of human Calu1 cells assessed as [3H]thymidine incorporation at 25 uM after 3 days by scintillation counting; type: functional; conditions: read-out: GI
[13] = test system: HeLa; assay: Growth inhibition of human HeLa cells assessed as [3H]thymidine incorporation at 100 uM after 3 days by scintillation counting; type: functional; conditions: read-out: GI
[14] = Growth inhibition of african green monkey Vero cells assessed as [3H]thymidine incorporation at 50 uM after 3 days by scintillation counting; type: cell-based; conditions: chlorocebus sabaeus, read-out: GI
[15] = test system: WISH; assay: Growth inhibition of human WISH cells assessed as [3H]thymidine incorporation at 100 uM after 3 days by scintillation counting; type: functional; conditions: read-out: GI
[16] = Growth inhibition of african green monkey Vero cells assessed as [3H]thymidine incorporation at 100 uM after 3 days by scintillation counting; type: cell-based; conditions: chlorocebus sabaeus, read-out: GI
[17] = test system: Calu-1; assay: Growth inhibition of human Calu1 cells assessed as [3H]thymidine incorporation at 100 uM after 3 days by scintillation counting; type: functional; conditions: read-out: GI
[18] = test system: Raji; assay: Growth inhibition of human Raji cells assessed as [3H]thymidine incorporation at 12.5 uM after 3 days by scintillation counting; type: functional; conditions: read-out: GI
[19] = test system: Calu-1; assay: Growth inhibition of human Calu1 cells assessed as [3H]thymidine incorporation at 12.5 uM after 3 days by scintillation counting; type: functional; conditions: read-out: GI
[20] = test system: HeLa; assay: Growth inhibition of human HeLa cells assessed as [3H]thymidine incorporation at 6.25 uM after 3 days by scintillation counting; type: functional; conditions: read-out: GI
[21] = test system: Raji; assay: Growth inhibition of human Raji cells assessed as [3H]thymidine incorporation at 100 uM after 3 days by scintillation counting; type: functional; conditions: read-out: GI
[22] = test system: WISH; assay: Growth inhibition of human WISH cells assessed as [3H]thymidine incorporation at 12.5 uM after 3 days by scintillation counting; type: functional; conditions: read-out: GI
[23] = test system: Raji; assay: Growth inhibition of human Raji cells assessed as [3H]thymidine incorporation at 25 uM after 3 days by scintillation counting; type: functional; conditions: read-out: GI
[24] = test system: WISH; assay: Growth inhibition of human WISH cells assessed as [3H]thymidine incorporation at 6.25 uM after 3 days by scintillation counting; type: functional; conditions: read-out: GI
[25] = Growth inhibition of african green monkey Vero cells assessed as [3H]thymidine incorporation at 6.25 uM after 3 days by scintillation counting; type: cell-based; conditions: chlorocebus sabaeus, read-out: GI
[26] = test system: K562; assay: Growth inhibition of human K562 cells assessed as [3H]thymidine incorporation at 100 uM after 3 days by scintillation counting; type: functional; conditions: read-out: GI
[27] = test system: Calu-1; assay: Growth inhibition of human Calu1 cells assessed as [3H]thymidine incorporation at 50 uM after 3 days by scintillation counting; type: functional; conditions: read-out: GI
[28] = test system: WISH; assay: Growth inhibition of human WISH cells assessed as [3H]thymidine incorporation at 25 uM after 3 days by scintillation counting; type: functional; conditions: read-out: GI
[29] = test system: HeLa; assay: Growth inhibition of human HeLa cells assessed as [3H]thymidine incorporation at 12.5 uM after 3 days by scintillation counting; type: functional; conditions: read-out: GI
[30] = test system: Vero; assay: Growth inhibition of african green monkey Vero cells assessed as [3H]thymidine incorporation at 12.5 uM after 3 days by scintillation counting; type: cell-based; conditions: chlorocebus sabaeus, 72 h
[31] = test system: Calu-1; assay: Growth inhibition of human Calu1 cells assessed as [3H]thymidine incorporation at 6.25 uM after 3 days by scintillation counting; type: functional; conditions: read-out: GI
[32] = test system: HeLa; assay: Growth inhibition of human HeLa cells assessed as [3H]thymidine incorporation at 50 uM after 3 days by scintillation counting; type: functional; conditions: read-out: GI

Compound: Cc1cc(O)c2c(c1)C(=O)c1cc(O)cc(O)c1C2=O [EMODIN]
- inhibition of growth at 50 µM [7]: 47.2%
- inhibition of growth at 25 µM [8]: 78.3%
- inhibition at 72 h, 25 µM [9]: 26.7%
- inhibition of growth at 50 µM [10]: 63.3%
- inhibition of growth at 6.25 µM [11]: 0.3%
- inhibition of growth at 25 µM [12]: 100%
- inhibition of growth at 100 µM [13]: 100%
- inhibition at 72 h, 50 µM [14]: 64.4%
- IC50 [1]: 6.25 µM
- inhibition of growth at 100 µM [15]: 80.7%
- inhibition at 72 h, 100 µM [16]: 69.1%
- inhibition of growth at 100 µM [17]: 100%
- inhibition of growth at 12.5 µM [18]: 41.2%
- inhibition of growth at 12.5 µM [19]: 60.6%
- IC50 [2]: 43.8 µM
- inhibition of growth at 6.25 µM [20]: 24.7%
- inhibition of growth at 100 µM [21]: 100%
- inhibition of growth at 12.5 µM [22]: 22%
- inhibition of growth at 25 µM [23]: 45.8%
- inhibition of growth at 6.25 µM [24]: 8.7%
- IC50 [3]: 15.6 µM
- inhibition at 72 h, 6.25 µM [25]: 3.3%
- inhibition of growth at 100 µM [26]: 29.5%
- inhibition of growth at 50 µM [27]: 100%
- inhibition of growth at 25 µM [28]: 61.9%
- IC50 [4]: 40 µM
- inhibition of growth at 12.5 µM [29]: 41.9%
- growth inhibition (GI) [30]: 13.7%
- IC50 [5]: 28.8 µM
- inhibition of growth at 6.25 µM [31]: 49.4%
- IC50 [6]: > 100 µM
- inhibition of growth at 50 µM [32]: 100%

Compound: Cc1cc(O)c2c(c1)C(=O)c1cccc(O)c1C2=O [CHRYSOPHANOL]
- IC50 [1]: > 100 µM
- IC50 [2]: > 100 µM
- IC50 [3]: > 100 µM
- IC50 [4]: > 100 µM
- IC50 [5]: > 100 µM
- IC50 [6]: > 100 µM

Compound: COc1cc(C)c(O)c2c1C(=O)c1c(O)cccc1C2=O
- IC50 [1]: > 100 µM
- IC50 [2]: > 100 µM
- IC50 [3]: > 100 µM
- IC50 [4]: > 100 µM
- IC50 [5]: > 100 µM
- IC50 [6]: > 100 µM

Further lines, with some results ahead:

- IC50 [1]: > 100 µM
- IC50 [2]: > 100 µM
- IC50 [3]: > 100 µM
- IC50 [6]: > 100 µM
Compound: COC1=C(O)C(=O)c2c(O)c3c(c(OC)c2C1=O)CC(C)OC3C (stereo not drawn) [VENTILOQUINONE K]
- IC50 [4]: > 100 µM
- IC50 [5]: > 100 µM

- IC50 [1]: > 100 µM
- IC50 [2]: > 100 µM
- IC50 [3]: > 100 µM
- IC50 [6]: > 100 µM
Compound: COC1=C(O)C(=O)c2c(cc3c(c2O)C(C)OC(C)C3)C1=O (stereo not drawn) [VENTILOQUINONE I]
- IC50 [4]: > 100 µM
- IC50 [5]: > 100 µM

- IC50 [1]: > 100 µM
- IC50 [2]: > 100 µM
- IC50 [3]: > 100 µM
- IC50 [6]: > 100 µM
Compound: COc1cc(O)c2c(c1)C(=O)c1c(O)c(C)cc(O)c1C2=O [PARIETIN]
- IC50 [4]: > 100 µM
- IC50 [5]: > 100 µM

- IC50 [1]: > 100 µM
- IC50 [2]: > 100 µM
- IC50 [3]: > 100 µM
- IC50 [6]: > 100 µM
Compound: COc1c(O)cc2c(c1OC)C(=O)c1c(cc(C)c(O)c1O)C2=O
- IC50 [4]: > 100 µM
- IC50 [5]: > 100 µM
